Reference: patent US8129359B2, “Composition and method for treating post-surgical pain” (Ethicon, Inc., priority 2004, dated 2012)
“Also recorded” adds a separate entry of the source. Counter-ions that a name gives are not always drawn.

Legend:
[1] = tested on: Male Sprague Dawley rats; test: Brennan surgical pain model (mechanical allodynia by von Frey filaments, mechanical hyperalgesia by pin-prick test); type: in vivo, rat; conditions: for Efficacy for reduction of post-surgical pain at a surgical wound site: in the oxidized regenerated cellulose-based system, MPE greater than 30 percent considered efficacious
Protocol: In order to evaluate the analgesic efficacy of the composition containing oxidized regenerated cellulose particles dry blended with an NSAID powder (diclofenac sodium), the Brennan surgical pain model was used (Characterization of a rat model of incisional pain, Brennan, T. J., et al., Pain: 64 (1996); 493-501). The model was performed as follows. Male Sprague Dawley rats weighing 250-300 grams were used throughout the experiment. Prior to surgery, each animal was habituated to the testing environment and a baseline response to Semmes-Weinstein (von Frey) filaments was established. Animals were anesthetized using a fresh mixture of xylazine and ketamine containing 100 mg ketamine/ml and 20 mg xylazine/ml. Each animal was injected intramuscularly with 1 ml/kg to achieve surgical anesthesia. The left hind paw was aseptically prepared and a 1 cm incision through the skin and fascia was made on the plantar surface of the hind paw, extending from the ankle distally. The middle digital tendon was isolated and crushed using mosquito hemostats for 20 seconds. Following surgery animals were tested for mechanical sensitivity at 4, 24, 48, 72 and 96 hours following surgery.
Ten rats were evaluated in each of the following groups:
Group 1. Control group: all animals were given intraperitoneal (IP) injections of saline (1 ml/kg) 1 hour before testing for mechanical allodynia and hyperalgesia.
This equates to a total of 1 mg of diclofenac sodium or approximately 4 mg/kg for a 250 g animal.
Group 3: Immediately post-tendon crush, a single dose (20 mg of micronized oxidized regenerated cellulose with an approximate particle size of 20-25 microns blended with […]) was mixed with 100 microliters of a sterile saline solution. The composition was then applied to the site of the crushed tendon.
This equates to a total of 0.5 mg of diclofenac sodium or approximately 2 mg/kg for a 250 g animal. […]
This equates to a total of 2.0 mg of diclofenac sodium or approximately 8 mg/kg for a 250 g animal.
The pin-prick test was used to assess mechanical hyperalgesia. Briefly, a blunted safety pin was used to gently tent the plantar skin of each hind paw without breaking the skin. A stopwatch was used to measure the withdrawal time following this stimulus. Increased withdrawal time (in seconds) was interpreted as mechanical hyperalgesia.
Mechanical sensitivity or mechanical allodynia from each time point was normalized against the negative control group and against each individual animal's pre-surgical mechanical sensitivity. Mechanical sensitivity was assessed using a procedure described by Chaplan et al. (J. Neurosci. Methods 1994, 53: 55-63). A series of von Frey filaments of varying rigidity strength (typically eight filaments in the series) were applied to the plantar surface of the hind paw ipsilateral to the ligations with just enough force to bend the filament. […] A positive allodynic response consists of lifting the affected paw followed immediately by licking or shaking of the paw. The order and frequency with which the filaments were applied was determined using the Dixon up-down method. Testing was initiated with the middle filament of the series with subsequent filaments being applied in consecutive fashion, ascending or descending, depending on whether a negative or positive response, respectively, was obtained with the initial filament.
Results are expressed as percent of Maximal Potential Efficacy (% MPE).

[2] = Pharmacokinetic evaluation of diclofenac release in a rat model (plasma and incision-site tissue, LC/MS/MS); type: in vivo
Protocol: Pharmacokinetic studies in a rat model were conducted to determine the rate of diclofenac release from the composition. Male Sprague Dawley rats (four rats per time point per group) were anesthetized with isoflurane and subjected to a single surgical incision on the plantar surface of the left hind paw. The medial tendon was exposed by blunt dissection and subjected to a 20 second clamp using a mosquito hemostat.
In Group 1 the incision was sutured closed following manipulation of the tendon. The rats were administered an intraperitoneal injection of 5 mg/kg Diclofenac (as sodium salt, saline vehicle) 4 hours and 23 hours post-surgery. Blood and tissue samples were harvested at 0.25, 1, 4 and 6 hours after the second dose.
In Group 2, oxidized regenerated cellulose (Surgicel® Fibrillar absorbable hemostat) was implanted between the tendon and the metatarsals and 0.5 mg of Diclofenac (as sodium salt, saline vehicle) was instilled directly into the wound site and the incision was sutured closed. Blood samples were taken at 0.25,1, 4, 6, 24 and 48 hours post surgery.
Blood was harvested into K-EDTA tubes via cardiac puncture while the rats were anesthetized with isoflurane. Rats were terminated immediately after the blood draw by CO2 inhalation, and the skin, muscle fascia and tendon of the left hind paw incision site were harvested. The contralateral tissue of the right hind paw was harvested and retained separately.
Blood samples were centrifuged to yield plasma, the resulting plasma as well as tissue samples were sent to Covance, Madison Wis. for LC/MS/MS analysis of diclofenac. Briefly, the analytical method involves extracting ˜50 mg of tissue or 50 uL of plasma w/acetonitrile; the residue of the ACN extract is analyzed by tandem mass spectroscopy. The dynamic ranges of the plasma and tissue assays were 25 to 12,500 ng/mL and 25 to 12,500 ng/g, respectively.

[3] = Micronized (20–25 um) oxidized regenerated cellulose, dry/powder, 1 mg
[4] = Surgicel Fibrillar absorbable hemostat 6 × 6 mm, solution, 0.5 mg
[5] = Surgicel Fibrillar absorbable hemostat 6 × 6 mm, solution, 1.0 mg

In the case of `COc1cccc(C2(O)CCCCC2CN(C)C)c1` (stereo not drawn) [Tramadol Sol'n, tramadol], the “Efficacy (duration of analgesic effect)” value ([1]; Surgicel Fibrillar absorbable hemostat 6 × 6 mm, solution, 2 mg) is reported as 24 h.
For `O=C(O)Cc1ccccc1Nc1c(Cl)cccc1Cl` [DCF Sol'n, 2-[(2,6-dichlorophenyl)amino]-Benzeneacetic acid, monosodium salt], the Period of analgesia ([1]; 6 mm×6 mm Surgicel Fibrillar oxidized regenerated cellulose plus diclofenac sodium and saline) was 48 h, the “Benefit at 72 hours” value ([1]; 6 mm×6 mm Surgicel Fibrillar oxidized regenerated cellulose plus diclofenac sodium and saline, 72 hours) was “smaller benefit” and the “Efficacy (duration of analgesic effect)” value ([1]; Interceed absorbable adhesion barrier 6 × 6 mm, solution, 0.5 mg) was 48 h. The “Efficacy (duration of analgesic effect)” value ([1]; Intraplantar injection, solution, 0.5 mg) was 4 h, the “Efficacy (duration of analgesic effect)” value [1, 3] was 72 h and the “Efficacy (duration of analgesic effect)” value ([1]; Micronized (20–25 um) oxidized regenerated cellulose, solution, 1.0 mg, applied at crushed tendon) was 72 h. For the same molecule, the “Significant increase in analgesic effect, through” value ([1]; Micronized oxidized regenerated cellulose (20-25 micron) mixed with diclofenac sodium and saline) was 72 h, the “Effect at 96 hours” value ([1]; Micronized oxidized regenerated cellulose (20-25 micron) mixed with diclofenac sodium and saline, 96 hours) was “some effect” and the “Efficacy (duration of analgesic effect)” value ([1]; Repeated IPL injec., solution, 0.5 mg) was 4 h. The “Efficacy (duration of analgesic effect)” value [1, 4] was 48 h and the “Efficacy (duration of analgesic effect)” value [1, 5] was 48 h.
With `Cc1cccc(C)c1NC(=O)C1CCCCN1C` (stereo not drawn) [Mepiv Sol'n, mepivacaine hydrochloride] the “Efficacy (duration of analgesic effect)” value ([1]; Intraplantar injection, solution, 1.0 mg) was 4 h, the “Efficacy (duration of analgesic effect)” value [1, 3] was “Ineffec-” and the “Efficacy (duration of analgesic effect)” value ([1]; Repeated IPL injec., solution, 1.0 mg) was 72+ Hrs. The “Efficacy (duration of analgesic effect)” value [1, 5] was 4 Hrs effect.
In the case of `CC(C(=O)O)c1cccc(C(=O)c2ccccc2)c1` (stereo not drawn) [Ketoprofen Sol'n, ketoprofen], the “Efficacy (duration of analgesic effect)” value [1, 4] is reported as “Ineffective” and the “Efficacy for reduction of post-surgical pain at a surgical wound site” value (from here on “Efficacy for reduction”) [1] is reported as “neither indomethacin nor ketoprofen is efficacious”.
With `O=C(O)Cc1ccccc1Nc1c(Cl)cccc1Cl` [DCF Free acid, 2-((2,6-ichlorophenyl)amino)benzeneacetic acid] the “Efficacy for reduction” value [1] was “surprisingly efficacious”, the “Diclofenac concentrations at the surgical site” value ([2]; after local administration of composition containing oxidized regenerated cellulose and diclofenac, FIG. 3A) was “remaining relatively high; also recorded: remained relatively high” and the “Tissue concentrations of diclofenac” value ([2]; intraperitoneal injection of diclofenac solution, FIG. 3A) was “rapid decline”. The “Plasma concentrations of diclofenac, local administration compared with systemic administration” value ([2]; local administration from the composition, FIG. 3B) was “much lower”.
With `COc1ccc2c(c1)c(CC(=O)O)c(C)n2C(=O)c1ccc(Cl)cc1` [Inodmethacin Sol'n, indomethacin] the “Efficacy (duration of analgesic effect)” value [1, 4] was “Ineffective” and the “Efficacy for reduction” value [1] was “neither indomethacin nor ketoprofen is efficacious”.
